Where two headings read alike, the source gives them in different places.
Experiments:
[1] = pKa measurement of cationic lipid (TNS fluorescence); format: physicochemical; details: pKa of the cationic lipid of formula (I), Table 4
Method: Unless indicated otherwise, all pKa's referred to herein were measured at standard temperature and pressure. Also, unless otherwise indicated, all references to pKa are references to pKa measured using the following technique. 2 mM solution of lipid in ethanol was prepared by weighing the lipid and then dissolving it in ethanol. 0.3 mM solution of fluorescent probe TNS in ethanol:methanol 9:1 was prepared by first making 3 mM solution of TNS in methanol and then diluting to 0.3 mM with ethanol. An aqueous buffer containing 200 mM sodium phosphate dibasic and 100 mM citric acid was prepared. […] Using the Hamilton Microlab Star high throughput liquid handler and Hamilton run control software Software, 7.5 uL of probe/lipid mix were added to 242.5 uL of buffer in a 1 mL 96 well plate (model NUNC 260252, […] Nunc International). This was done with all twelve buffers. After mixing in 1 mL 96 well plate, 100 uL of each probe/lipid/buffer mixture was transferred to a 250 uL black with clear bottom 96 well plate (model COSTAR 3904, Corning). The fluorescence measurements are carried out on the SpectraMax M5 spectrophotometer using software SoftMax pro 5.2 and following parameters: After the measurement, the background fluorescence value of an empty well on the 96 well plate was subtracted from each probe/lipid/buffer mixture. The fluorescence intensity values were then normalized to the value at lowest pH. The normalized fluorescence intensity vs. pH chart was then plotted in the Microsoft Excel software. The twelve points were connected with a smooth line. The point on the line at which the normalized fluorescence intensity was equal to 0.5 was found. […] The pKa determined using this method is precise to about 0.1 pKa units.

[2] = system: plasma Factor VII enzyme activity; test: Mouse Factor VII dosing / Factor VII Activity Assay; format: in vivo; details: percent knock down of plasma Factor VII activity, CD-1 mice, 48 h; for KD FVII 0.03 mg/kg: single IV dose 0.03 mg/kg; for KD FVII 0.3 mg/kg: single IV dose 0.3 mg/kg
Method: Female CD-1 mice were received from Harlan Labs and maintained on standard lab chow and water ad libitum. The animals weighed approximately 25 grams at time of dosing. Formulated Factor VII siRNA was administered as a single dose intravenously via the lateral tail vein. Approximately 48 hours after injection, the mice were euthanized by CO2 inhalation followed by exsanguination through the vena cava. […] Plasma collected from injected mice was assayed for Factor VII enzyme activity using the Biophen FVII kit from Hyphen Biomedical (catalog number 221304). An assay standard curve was prepared using pooled plasma aliquots from the vehicle control animals. All samples were diluted to fall within the linear range of the standard curve and Factor VII activity relative to control plasma was reported. Lipid nanoparticles comprising lipid compounds of formula (I) and the FVII siRNA duplex sequence listed above were tested in the Factor VII Activity Assay. The results of this assay are given in Table 4 below as a percent knock down of plasma Factor VII enzyme activity at a dose of 0.3 mg/kg and 0.03 mg/kg.

[3] = LNP Chol/DSPC/PEG-DMG 45/44/9/2

| pKa ([1]; probe TNS, read-out: pKa) | Compound | KD FVII 0.03 mg/kg [2, 3] | KD FVII 0.3 mg/kg [2, 3] | other results |
| --- | --- | --- | --- | --- |
| 5.84 | CCCCCC(CCCCC)CCCCCCCC(=O)OCc1cc(COC(=O)CCCCCCCC(CCCCC)CCCCC)cc(CN(C)C)c1 [Ex. 119, (5-((dimethylamino)methyl)-1,3-phenylene)bis(methylene)bis(9-pentyltetradecanoate)] | 7.8% | – | – |
| 7.11 | CCCCCCCCCC(=O)OCCCCCCCCOc1cc(COC(=O)CCCN(C)C)cc(OCCCCCCCCOC(=O)CCCCCCCCC)c1 [Ex. 124, ((5-(((4-(dimethylamino)butanoyl)oxy)methyl)-1,3-phenylene)bis(oxy))bis(octane-8,1-diyl)bis(decanoate)] | – | – | – |

Second part, the compound before the results:

| Compound | pKa ([1]; probe TNS, read-out: pKa) | KD FVII 0.03 mg/kg [2, 3] | KD FVII 0.3 mg/kg [2, 3] | other results |
| --- | --- | --- | --- | --- |
| CCCCC/C=C\C/C=C\CCCCCCCC(=O)OCCCCOc1cc(CCCN2CCCCC2)cc(OCCCCOC(=O)CCCCCCC/C=C\C/C=C\CCCCC)c1 [Ex. 120, (9Z,9′Z,12Z,12′Z)-((5-(3-(piperidin-1-yl)propyl)-1,3-phenylene)bis(oxy))bis(butane-4,1-diyl)bis(octadeca-9,12-dienoate)] | 6.31 | 83.7% | – | – |
| CCCCCCC(CCCCCC)CCCCCC(=O)OCc1cc(COC(=O)CCCCCC(CCCCCC)CCCCCC)cc(CN(C)C)c1 [Ex. 118, (5-((dimethylamino)methyl)-1,3-phenylene)bis(methylene)bis(7-hexyltridecanoate)] | 5.67 | 46.3% | – | – |
| CCCCCCCCC(CCCCCCCC)CC(=O)OCCCOc1cc(CN(C)C)cc(OCCCOC(=O)CC(CCCCCCCC)CCCCCCCC)c1 [Example 56, ((5-((dimethylamino)methyl)-1,3-phenylene)bis(oxy))bis(propane-3,1-diyl)bis(3-octylundecanoate)] | – | – | 71.0% | pKa ([1]; listed as Ex. 56): 5.71 |
| CCCCCCCCCCCC(=O)OCCCCCCCCOc1cc(CN(C)C)cc(OCCCCCCCCOC(=O)CCCCCCCCCCC)c1 [Example 53, ((5-((dimethylamino)methyl)-1,3-phenylene)bis(oxy))bis(octane-8,1-diyl)didodecanoate] | – | – | 96.6% | pKa ([1]; listed as Ex. 53): 5.84 |
| CCCCCCCC(CCCCCCC)CCCC(=O)OCCCCOc1cc(CN(C)C)cc(OCCCCOC(=O)CCCC(CCCCCCC)CCCCCCC)c1 [Ex. 115, ((5-((dimethylamino)methyl)-1,3-phenylene)bis(oxy))bis(butane-4,1-diyl)bis(5-heptyldodecanoate)] | 5.87 | 78% | – | – |
| CCCCCCCC(=O)OCCCCCCCCCC(=O)OCc1cc(COC(=O)CCCCCCCCCOC(=O)CCCCCCC)cc(CN(C)C)c1 [Example 86, (5-((dimethylamino)methyl)-1,3-phenylene)bis(methylene)bis(10-(octanoyloxy)decanoate)] | – | – | 55.3% | pKa ([1]; listed as Ex. 86): 5.81; KD FVII 0.03 mg/kg ([2]; LNP Chol/DSPC/S010 45/44/9/2): 0% |
| CCCCC/C=C\C/C=C\CCCCCCCC(=O)OCCOCCOc1cc(CN(CC)CC)cc(OCCOCCOC(=O)CCCCCCC/C=C\C/C=C\CCCCC)c1 [Example 58, (9Z,9′Z,12Z,12′Z)-((((5-((diethylamino)methyl)-1,3-phenylene)bis(oxy))bis(ethane-2,1-diyl))bis(oxy))bis(ethane-2,1-diyl)bis(octadeca-9,12-dienoate)] | – | – | 78.1% | pKa ([1]; listed as Ex. 58): 6.02; KD FVII 0.03 mg/kg ([2]; LNP Chol/DSPC/S010 45/44/9/2): 15.25% |
| CCCCC/C=C\C/C=C\CCCCCCCC(=O)OCc1cc(COC(=O)CCCCCCC/C=C\C/C=C\CCCCC)cc(CN(C)C)c1 [Example 33, (9Z,9′Z,12Z,12′Z)-(5-((dimethylamino)methyl)-1,3-phenylene)bis(methylene)bis(octadeca-9,12-dienoate)] | – | – | 90.4% | pKa ([1]; listed as Ex. 33): 5.75 |
| CCCCCCCCC(CCCCCCCC)CC(=O)OCCCCOc1cc(CN(C)C)cc(OCCCCOC(=O)CC(CCCCCCCC)CCCCCCCC)c1 [Ex. 116, ((5-((dimethylamino)methyl)-1,3-phenylene)bis(oxy))bis(butane-4,1-diyl)bis(3-octylundecanoate)] | 5.67 | 29% | – | – |

From US10124065B2, “Lipids and lipid compositions for the delivery of active agents” (Novartis AG, priority 2013, dated 2018)
